In ChEMBL document CHEMBL1148849, “Synthesis and structure evaluation of a novel cantharimide and its cytotoxicity on SK-Hep-1 hepatoma cells” (2007):
Activity calls are given as the source filed them. The rule behind the calls is not given here.

Columns and labels:
SK-HEP1 [1] = assay: Cytotoxicity against human SK-HEP-1 cells assessed as 50 percent MTS reduction after 48 hrs; format: functional
SK-HEP1 [2] = assay: Cytotoxicity against human SK-HEP-1 cells assessed as inducing loss of colony formation by MTS assay; format: functional, cell-based
MCF7 = assay: Apoptotic effect on MCF7 cells assessed as induction of shrinkage at 25 ug/mL after 48 hrs; format: functional, cell-based; conditions: Homo sapiens
SK-HEP1 [3] = assay: Effect on apoptosis in human SK-HEP-1 cells at 25 ug/mL after 48 hrs by TUNEL method; format: functional, cell-based
LNCaP = assay: Apoptotic effect on LNCap cells assessed as induction of shrinkage at 25 ug/mL after 48 hrs; format: functional, cell-based; conditions: Homo sapiens
SK-HEP1 [4] = assay: Effect on apoptosis in human SK-HEP-1 cells assessed as increase in caspase 3 activation at 25 ug/mL after 48 hrs; format: functional, cell-based
SK-HEP1 [5] = assay: Cytotoxicity against human SK-HEP-1 cells assessed as inducing cell shrinkage after 48 hrs by MTS assay; format: functional, cell-based

COc1ccc2nc(N3C(=O)[C@@]4(C)[C@H]5CC[C@H](O5)[C@@]4(C)C3=O)sc2c1
Activity (SK-HEP1 [1]): 6.25 µg/mL | Activity (SK-HEP1 [2]): Active | Activity (MCF7): Active | Activity (SK-HEP1 [3]): Active | Activity (LNCaP): Active | Activity (SK-HEP1 [4]): Active | Activity (SK-HEP1 [5]): Active

Cc1ccc2nc(N3C(=O)[C@@]4(C)[C@H]5CC[C@H](O5)[C@@]4(C)C3=O)sc2c1
Activity (SK-HEP1 [1]): 12.5 µg/mL | Activity (SK-HEP1 [2]): Active | Activity (SK-HEP1 [3]): Active | Activity (SK-HEP1 [4]): Active | Activity (SK-HEP1 [5]): Active
